Results reported in patent publication US20240158446A1, “CYCLIC COMPOUND HAVING SELECTIVE INHIBITORY ACTION ON KRAS OVER HRAS AND NRAS” (CHUGAI SEIYAKU KABUSHIKI KAISHA, priority 2021, published 2024).
pKd: −log10 of the molar value. Like-named read-outs stand apart in the source and are kept apart here. Where a SMILES comes first, the peptide text is derived from it. Bridges are numbered along the chain shown (N, C = ends). [ ]: non-standard residue; d: D form. The star is where a group is joined. hPhe(3,5-F2-4-CF3) = N[C@@H](CCc1cc(F)c(C(F)(F)F)c(F)c1)C(=O)O; hPhe(3-Cl-4-CF3) = N[C@@H](CCc1ccc(C(F)(F)F)c(Cl)c1)C(=O)O; NPrPhe(4-CF3) = CCCN[C@@H](Cc1ccc(C(F)(F)F)cc1)C(=O)O; NMeGly(cPent) = CN[C@H](C(=O)O)C1CCCC1; Hyp = O=C(O)[C@@H]1C[C@@H](O)CN1; NMeD = CN[C@@H](CC(=O)O)C(=O)O; Ac4c(3-oxa) = NC1(C(=O)O)COC1; NMeL = CN[C@@H](CC(C)C)C(=O)O; Morpholide = C1CN(*)CCO1; NMeA = CN[C@@H](C)C(=O)O; Ac5c = NC1(C(=O)O)CCCC1; Aze = O=C(O)[C@@H]1CCN1; Sar = CNCC(=O)O

Experiments:
[1] = molecular target: GDP-bound NRAS wild-type protein (Homo sapiens, UniProt P01111); experiment: Binding to NRAS by surface plasmon resonance (SPR), Single Cycle Kinetics; details: for NRAS/KRAS (ratio of KD value for NRAS to KD value for KRAS) / NRAS/KRAS (ratio of KD value with respect to NRAS to KD value with respect to KRAS): SPR, GDP-bound NRAS wild-type protein vs GDP-bound KRAS wild-type protein; for NRAS/KRAS (ratio of KD value with respect to GDP-bound NRAS wild-type protein to KD value with respect to KRAS): SPR KD ratio NRAS/KRAS, class symbols
[2] = molecular target: GDP-bound HRAS wild-type protein (Homo sapiens, UniProt P01112); experiment: Binding to HRAS by surface plasmon resonance (SPR), Single Cycle Kinetics; details: for HRAS/KRAS (ratio of KD value for HRAS to KD value for KRAS) / HRAS/KRAS (ratio of KD value with respect to HRAS to KD value with respect to KRAS): SPR, GDP-bound HRAS wild-type protein vs GDP-bound KRAS wild-type protein; for HRAS/KRAS (ratio of KD value with respect to GDP-bound HRAS wild-type protein to KD value with respect to KRAS): SPR KD ratio HRAS/KRAS, class symbols
[3] = molecular target: GDP-bound KRAS wild-type protein (Homo sapiens, UniProt P01116); experiment: Binding to KRAS by surface plasmon resonance (SPR), Single Cycle Kinetics; details: GDP-bound KRAS wild-type protein, read-out: KRAS KD
[4] = SPR Single Cycle Kinetics, 1:1 binding model
[5] = SPR, Single Cycle Kinetics, 1:1 binding model

Chain of GDP-bound NRAS wild-type protein (P01111 whole entry): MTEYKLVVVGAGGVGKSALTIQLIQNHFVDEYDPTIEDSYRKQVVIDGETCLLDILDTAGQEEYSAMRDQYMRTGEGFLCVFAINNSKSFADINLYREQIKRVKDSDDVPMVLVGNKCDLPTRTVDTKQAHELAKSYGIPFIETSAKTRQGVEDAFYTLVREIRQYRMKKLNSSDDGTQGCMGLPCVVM
Chain of GDP-bound KRAS wild-type protein (P01116 whole entry): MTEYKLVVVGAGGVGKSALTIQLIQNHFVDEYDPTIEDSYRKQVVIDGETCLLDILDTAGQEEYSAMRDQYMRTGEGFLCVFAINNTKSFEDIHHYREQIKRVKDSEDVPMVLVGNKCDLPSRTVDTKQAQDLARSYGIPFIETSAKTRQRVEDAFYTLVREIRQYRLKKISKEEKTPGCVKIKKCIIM
Chain of GDP-bound HRAS wild-type protein (P01112 whole entry): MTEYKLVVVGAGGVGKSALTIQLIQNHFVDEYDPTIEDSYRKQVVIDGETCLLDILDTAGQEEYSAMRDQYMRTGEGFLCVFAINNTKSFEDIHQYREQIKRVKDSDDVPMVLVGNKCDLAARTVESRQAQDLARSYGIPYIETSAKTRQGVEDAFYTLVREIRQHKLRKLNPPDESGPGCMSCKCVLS

`CCCN1C(=O)[C@@H]2CCN2C(=O)[C@H](C)N(C)C(=O)[C@H]([C@@H](C)CC)NC(=O)[C@H](CC(C)C)N(C)C(=O)C[C@@H](C(=O)N2CCOCC2)NC(=O)[C@H](C2CCCC2)N(C)C(=O)C2(CCCC2)NC(=O)[C@@H]2C[C@@H](OCC)CN2C(=O)[C@H](CCc2ccc(C(F)(F)F)c(Cl)c2)NC(=O)CN(C)C(=O)[C@@H]1Cc1ccc(C(F)(F)F)cc1` [PP0347] ([NMeL]I[NMeA][Aze][NPrPhe(4-CF3)][Sar][hPhe(3-Cl-4-CF3)][Hyp](Et)[Ac5c][NMeGly(cPent)]D-Morpholide; lactam N-11) was tested, and the “NRAS/KRAS (ratio of KD value for NRAS to KD value for KRAS)” value [1] was “C (A compound having a KD ratio of 0.1 or more and less than 3 is denoted as C)”, the “HRAS/KRAS (ratio of KD value for HRAS to KD value for KRAS)” value [2] was “B (a compound having 3 or more and less than 10 is denoted as B)” and the pKd [3, 4] was 9.44.

In the case of `CCC[C@H]1C(=O)N[C@@H]([C@@H](C)CC)C(=O)N(C)CC(=O)N(C)[C@H]2C/C=C\CCN(C2=O)[C@@H](Cc2ccc(C(F)(F)F)cc2)C(=O)N(C)CC(=O)N[C@@H](CCc2cc(F)c(C(F)(F)F)c(F)c2)C(=O)N2C[C@H](OCC)C[C@H]2C(=O)NC2(CCC2)C(=O)N(C)[C@@H](C2CCCC2)C(=O)N(C)[C@H](C(=O)N(C)CCC)CC(=O)N1C` [PP1389, (2S,8S,12R,14S,20S,23S,27S,30S,36S,38Z)-20-cyclopentyl-8-[2-[3,5-difluoro-4-(trifluoromethyl)phenyl]ethyl]-12-ethoxy-N,4,19,22,26,32,35-heptamethyl-30-[(1S)-1-methylpropyl]-3,6,9,15,18,21,25,28,31,34,42-undecaoxo-N,27-dipropyl-2-[[4-(trifluoromethyl)phenyl]methyl]spiro[1,4,7,10,16,19,22,26,29,32,35-undecazatricyclo[34.5.1.0^10,14]dotetracont-38-ene-17,1′-cyclobutane]-23-carboxamide], the “NRAS/KRAS (ratio of KD value for NRAS to KD value for KRAS)” value ([1]; KD ratio class) was “AA (a compound having 20 or more is denoted as AA)”, the “HRAS/KRAS (ratio of KD value for HRAS to KD value for KRAS)” value ([2]; KD ratio class) was “A (a compound having 10 or more and less than 20 is denoted as A)” and the pKd [3, 5] was 10.18.

`CC[C@H](C)[C@@H]1NC(=O)[C@H](CC(C)C)N(C)C(=O)C[C@@H](C(=O)N2CCC2)N(C)C(=O)[C@H](C2CCCC2)N(C)C(=O)C2(CCCC2)NC(=O)[C@@H]2CCCN2C(=O)[C@H](CCc2cc(F)c(C(F)(F)F)c(F)c2)NC(=O)CN(C)C(=O)[C@H](Cc2ccc(C(F)(F)F)cc2)N2CCCC[C@@H](C2=O)N(C)C(=O)CN(C)C1=O` [PP0570] was tested, and the “NRAS/KRAS (ratio of KD value with respect to NRAS to KD value with respect to KRAS)” value [1] was “B (a compound having 3 or more and less than 10 is denoted as B)”, the “HRAS/KRAS (ratio of KD value with respect to HRAS to KD value with respect to KRAS)” value [2] was “B (a compound having 3 or more and less than 10 is denoted as B)” and the pKd [3, 4] was 10.34.

In the case of `CC[C@H](C)[C@@H]1NC(=O)[C@H](CC2CC2)N(C)C(=O)C[C@@H](C(=O)N(C)C)N(C)C(=O)[C@H](C2CCCC2)N(C)C(=O)C2(CC(C)(C)C2)NC(=O)[C@@H]2C[C@@H](F)CN2C(=O)[C@H](CCc2cc(F)c(C(F)(F)F)c(F)c2)NC(=O)CN(C)C(=O)[C@H](Cc2ccc(C(F)(F)F)cc2)N2CC/C=C\C[C@@H](C2=O)N(C)C(=O)CN(C)C1=O` [PP1501, (2S,8S,12R,14S,20S,23S,27S,30S,36S,38Z)-20-cyclopentyl-27-(cyclopropylmethyl)-8-[2-[3,5-difluoro-4-(trifluoromethyl)phenyl]ethyl]-12-fluoro-N,N,3′,3′,4,19,22,26,32,35-decamethyl-30-[(1S)-1-methylpropyl]-3,6,9,15,18,21,25,28,31,34,42-undecaoxo-2-[[4-(trifluoromethyl)phenyl]methyl]spiro[1,4,7,10,16,19,22,26,29,32,35-undecazatricyclo[34.5.1.0^10,14]dotetracont-38-ene-17,1′-cyclobutane]-23-carboxamide], the “NRAS/KRAS (ratio of KD value for NRAS to KD value for KRAS)” value ([1]; KD ratio class) was “A (a compound having 10 or more and less than 20 is denoted as A)”, the “HRAS/KRAS (ratio of KD value for HRAS to KD value for KRAS)” value ([2]; KD ratio class) was “A (a compound having 10 or more and less than 20 is denoted as A)” and the pKd [3, 5] was 10.62.

For `CCCN1C(=O)CN(C)C(=O)CN(C)C(=O)[C@H]([C@@H](C)CC)NC(=O)[C@H](CC(C)C)N(C)C(=O)C[C@@H](C(=O)N(C)C)N(C)C(=O)[C@H](C2CCCC2)N(C)C(=O)C2(COC2)NC(=O)[C@@H]2CCCN2C(=O)[C@H](CCc2cc(F)c(C(F)(F)F)c(F)c2)NC(=O)CN(C)C(=O)[C@@H]1Cc1ccc(C(F)(F)F)cc1` [PP0744] ([NMeL]I[Sar][Sar][NPrPhe(4-CF3)][Sar][hPhe(3,5-F2-4-CF3)]P[Ac4c(3-oxa)][NMeGly(cPent)][NMeD]-NMe2; lactam N-11), the “NRAS/KRAS (ratio of KD value with respect to NRAS to KD value with respect to KRAS)” value [1] was “B (a compound having 3 or more and less than 10 is denoted as B)”, the “HRAS/KRAS (ratio of KD value with respect to HRAS to KD value with respect to KRAS)” value [2] was “B (a compound having 3 or more and less than 10 is denoted as B)” and the pKd [3, 4] was 10.22.

For `CCC[C@H]1C(=O)N[C@@H]([C@@H](C)CC)C(=O)N(C)CC(=O)N(C)[C@H]2C/C=C\CCN(C2=O)[C@@H](Cc2ccc(C(F)(F)F)cc2)C(=O)N(C)CC(=O)N[C@@H](CCc2ccc(Cl)c(Cl)c2)C(=O)N2CC[C@H]2C(=O)NC2(CC(C)(C)C2)C(=O)N(C)[C@@H](C(CC)CC)C(=O)N(C)[C@H](C(=O)N(C)C)CC(=O)N1C` [PP2921], the “NRAS/KRAS (ratio of KD value with respect to GDP-bound NRAS wild-type protein to KD value with respect to KRAS)” value [1] was “AA (a compound having 20 or more is denoted as AA)”, the “HRAS/KRAS (ratio of KD value with respect to GDP-bound HRAS wild-type protein to KD value with respect to KRAS)” value [2] was “A (a compound having 10 or more and less than 20 is denoted as A)” and the pKd [3, 4] was 8.16.

For `CCCN1C(=O)[C@@H]2CCN2C(=O)[C@H](C)N(C)C(=O)[C@H]([C@@H](C)CC)NC(=O)[C@H](CC(C)C)N(C)C(=O)C[C@@H](C(=O)N2CCOCC2)N(C)C(=O)[C@H](C2CCCC2)N(C)C(=O)C2(CCCC2)NC(=O)CN(C)C(=O)[C@H](CCc2ccc(C(F)(F)F)c(Cl)c2)NC(=O)CN(C)C(=O)[C@@H]1Cc1ccc(C(F)(F)F)cc1` [PP0287] ([NMeL]I[NMeA][Aze][NPrPhe(4-CF3)][Sar][hPhe(3-Cl-4-CF3)][Sar][Ac5c][NMeGly(cPent)][NMeD]-Morpholide; lactam N-11), the “NRAS/KRAS (ratio of KD value for NRAS to KD value for KRAS)” value [1] was “C (A compound having a KD ratio of 0.1 or more and less than 3 is denoted as C)”, the “HRAS/KRAS (ratio of KD value for HRAS to KD value for KRAS)” value [2] was “C (A compound having a KD ratio of 0.1 or more and less than 3 is denoted as C)” and the pKd [3, 4] was 9.59.

In the case of `CCO[C@@H]1C[C@H]2C(=O)NC3(CCC3)C(=O)N(C)[C@@H](C3CCCC3)C(=O)N(C)[C@H](C(=O)N3CCOCC3)CC(=O)N(C)[C@@H](CC)C(=O)N[C@@H]([C@@H](C)CC)C(=O)N(C)CC(=O)N(C)[C@H]3CCCCCN(C3=O)[C@@H](Cc3ccc(C(F)(F)F)cc3)C(=O)N(C)CC(=O)N[C@@H](CCc3cc(F)c(C(F)(F)F)c(F)c3)C(=O)N2C1` [PP0678], the “NRAS/KRAS (ratio of KD value with respect to NRAS to KD value with respect to KRAS)” value [1] was “B (a compound having 3 or more and less than 10 is denoted as B)”, the “HRAS/KRAS (ratio of KD value with respect to HRAS to KD value with respect to KRAS)” value [2] was “B (a compound having 3 or more and less than 10 is denoted as B)” and the pKd [3, 4] was 9.33.

`CCO[C@@H]1C[C@H]2C(=O)NC3(CCC3)C(=O)N(C)[C@@H](C3CCCC3)C(=O)N(C)[C@H](C(=O)N(C)CC)CC(=O)N(C)[C@@H](CC3CCC3)C(=O)N[C@@H]([C@@H](C)CC)C(=O)N(C)CC(=O)N(C)[C@H]3C/C=C\CCN(C3=O)[C@@H](Cc3ccc(C(F)(F)F)cc3)C(=O)N(C)CC(=O)N[C@@H](CCc3ccc(C(F)(F)F)c(OC)c3)C(=O)N2C1` [PP2825] was tested, and the “NRAS/KRAS (ratio of KD value with respect to GDP-bound NRAS wild-type protein to KD value with respect to KRAS)” value [1] was “A (a compound having 10 or more and less than 20 is denoted as A)”, the “HRAS/KRAS (ratio of KD value with respect to GDP-bound HRAS wild-type protein to KD value with respect to KRAS)” value [2] was “B (a compound having 3 or more and less than 10 is denoted as B)” and the pKd [3, 4] was 9.92.

With `CC[C@H](C)[C@@H]1NC(=O)[C@H](CC(C)C)N(C)C(=O)C[C@@H](C(=O)N(C)C)N(C)C(=O)[C@H](C2CCCC2)N(C)C(=O)C2(CCC2)NC(=O)[C@@H]2CC(F)(F)CN2C(=O)[C@H](CCc2ccc(C(F)(F)F)c(Cl)c2)NC(=O)CN(C)C(=O)[C@H](Cc2ccc(F)cc2)N2CCCCC[C@@H](C2=O)N(C)C(=O)CN(C)C1=O` [PP0973] the “NRAS/KRAS (ratio of KD value for NRAS to KD value for KRAS)” value [1] was “B (a compound having 3 or more and less than 10 is denoted as B)”, the “HRAS/KRAS (ratio of KD value for HRAS to KD value for KRAS)” value [2] was “B (a compound having 3 or more and less than 10 is denoted as B)” and the pKd ([3]; SPR, Single Cycle Kinetics) was 10.07.

`CCC[C@H]1C(=O)N[C@@H]([C@@H](C)CC)C(=O)N(C)CC(=O)N(C)[C@H]2C/C=C\CCN(C2=O)[C@@H](Cc2ccc(C(F)(F)F)cc2)C(=O)N(C)CC(=O)N[C@@H](CCc2ccc(C(F)(F)F)c(Cl)c2)C(=O)N2CCCCC[C@H]2C(=O)NC2(CC(C)(C)C2)C(=O)N(C)[C@@H](C(CC)CC)C(=O)N(C)[C@H](C(=O)N(C)C)CC(=O)N1C` [PP2964] was tested, and the “NRAS/KRAS (ratio of KD value with respect to GDP-bound NRAS wild-type protein to KD value with respect to KRAS)” value [1] was “AA (a compound having 20 or more is denoted as AA)”, the “HRAS/KRAS (ratio of KD value with respect to GDP-bound HRAS wild-type protein to KD value with respect to KRAS)” value [2] was “A (a compound having 10 or more and less than 20 is denoted as A)” and the pKd [3, 4] was 9.07.
